This passage reports CYP3A4 inhibition and metabolism results from patent US20210244735A1, “COMPOSITIONS AND METHODS FOR TREATING MYELOFIBROSIS” (Impact Biomedicines, Inc., priority 2010, published 2021).

SMILES strings stand for the structures.

For this data set, the target named is human CYP3A4 (Homo sapiens, UniProt P08684). The data set can be described thus: In vitro evaluations of CYP3A4 metabolism and inhibition. Format: in vitro ADME.
Chain of human CYP3A4 (P08684 whole entry): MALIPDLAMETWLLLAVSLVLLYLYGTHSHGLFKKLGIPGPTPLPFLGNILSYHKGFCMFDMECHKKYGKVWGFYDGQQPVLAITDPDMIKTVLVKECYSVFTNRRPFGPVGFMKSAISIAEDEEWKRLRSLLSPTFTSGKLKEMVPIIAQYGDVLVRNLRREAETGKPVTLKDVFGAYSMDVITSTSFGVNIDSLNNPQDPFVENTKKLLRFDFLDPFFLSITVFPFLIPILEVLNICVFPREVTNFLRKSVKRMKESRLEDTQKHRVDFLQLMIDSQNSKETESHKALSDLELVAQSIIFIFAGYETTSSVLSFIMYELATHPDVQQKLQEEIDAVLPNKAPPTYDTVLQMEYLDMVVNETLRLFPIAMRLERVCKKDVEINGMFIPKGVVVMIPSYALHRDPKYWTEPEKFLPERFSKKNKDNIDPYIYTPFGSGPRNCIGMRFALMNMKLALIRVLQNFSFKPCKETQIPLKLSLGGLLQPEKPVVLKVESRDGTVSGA

Regarding `Cc1cnc(Nc2ccc(OCCN3CCCC3)cc2)nc1Nc1cccc(S(=O)(=O)NC(C)(C)C)c1` [N-tert-butyl-3-[(5-methyl-2-{[4-(2-pyrrolidin-1-ylethoxy)phenyl]amino}pyrimidin-4-yl)amino]benzenesulfonamide], the CYP3A4 inhibition entry (in vitro data) is “inhibits CYP3A4 in a time-dependent fashion”. The metabolism result (in vitro evaluations) is listed as “metabolized by human CYP3A4”.
